{"source": "patent US20050214738A1", "about": "“Conditional allele system” (priority 2003, published 2005)", "key": {"[1]": {"target": "T1, KTF (Homo sapiens, UniProt P42345+P62942, W2101F)", "T1 construct": "The minimal FRB domain comprises amino acids 2025-2114 of human mTor; expressed in transfected cells; host or cells: COS1 cells", "T1 sequence (P42345 2025-2114 W2101F)": "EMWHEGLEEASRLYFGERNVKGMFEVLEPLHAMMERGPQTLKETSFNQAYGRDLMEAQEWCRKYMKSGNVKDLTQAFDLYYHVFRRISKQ", "T1 sequence (P62942 whole entry, the tested form may be a part)": "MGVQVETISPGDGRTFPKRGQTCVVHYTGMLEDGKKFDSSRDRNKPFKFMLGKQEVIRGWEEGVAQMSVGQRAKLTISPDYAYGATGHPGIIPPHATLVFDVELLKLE", "experiment": "SeAP transcriptional switch assay, FRB mutant KTF", "assay_type": "cell-based", "description": "(§1) Drug efficacy was determined in a three-plasmid transcriptional switch reporter assay. ˜106 COS1 cells were coelectroporated with 2 μg of the DNA binding construct pBJ5-Gal4-FKBP(3), 2 μg pBJ5-VP16 (or the relevant mutant FRB) and 2 μg of the Gal4-SeAP reporter. Electroporation details are available upon request. Cells were immediately aliquoted to 2 or 3×96 well plates with flat bottoms. After 24 hours incubation media was supplemented with a rapalog in triplicate and in serial two fold dilutions. Following 24 hours further incubation, cells with media were wrapped carefully in plastic wrap and heated to 65° C. for two hours to inactivate endogenous phosphatases. 50 μL of media was transferred to a black 96 well plate (Costar 3915) and supplemented with 1 mM methylumbelliferrylphosphate (Sigma, St. Louis, Mo.) in 1M diethanolamine (pH 10.0 with carbonate). After 16 hours incubation at 37° C. SeAP activity was measured by fluorescence with a Spectamax M2 fluorometer (Molecular Devices, Sunnyvale, Calif.) with transmission set at 355 nm and emmission set at 460 nm. Data was analysed with Softmax Pro (Molecular Devices), Microsoft Excel and Prism 3 (GraphPad Software)."}, "[2]": {"target": "T2, FRB* (Homo sapiens, UniProt P42345+P62942, K2095P/T2098L/W2101F)", "T2 construct": "The minimal FRB domain comprises amino acids 2025-2114 of human mTor; expressed in transfected cells; host or cells: COS-1 cells", "T2 sequence (P42345 2025-2114 K2095P/T2098L/W2101F)": "as the sequence (P42345 2025-2114 W2101F) above, with K71P, T74L counted along it", "T2 sequence (P62942 whole entry, the tested form may be a part)": "as the sequence (P62942 whole entry, the tested form may be a part) above", "experiment": "SeAP reporter assay, dimerization of FRB*-VP16 to FKBP3-GAL4DBD in COS-1 cells", "assay_type": "cell-based", "source_text": "Transcription activation by recruitment of chimeric transcriptional activation and DNA binding domains is described. COS-1 cells were electroporated with […] each of the following expression plasmids (Ho, S. N., Biggar, S. R., Spencer, D. M., Schreiber, S. L., and Crabtree, G. R. “Dimeric ligands define a role for transcriptional activation domains in reinitiation.” (1996) Nature 382, 822-826): pG5IL2SX (drives transcription of bacterial secreted alkaline phosphatase (SeAP) through GAL4 DNA binding […] elements), pBJ5-GF3E (which expresses the GAL4 DNA binding domain fused to three copies of human FKBP12), and pBJ5-FRBVP. (which expresses a FRB fusion with the Herpes Simplex Virus VP16 Activation domain) A FRB*-VP16 fusion protein which consists of modified FRB protein fused to the VP16 activation domain was also used selectively. Transfected cells were distributed equally to 96 well plates and were incubated at 37° C. for 24 to 36 hours before media was supplemented with drug in a dilution curve in which each point is represented in quadruplicate. Cells were incubated at 37° C. for an additional 24 hours followed by a 2-hour treatment at 65° C. to inactivate endogenous phosphatases. Each well was supplemented with 100μL of 1 mM methylumbelliferylphosphate dissolved in 2 M diethanolamine buffered to pH 10.0 with carbonate and incubated at 37° C. for 16 hours. Fluorescence was measured with a Fluoroscan (ICN) plate reader at 355 nm transmission and 455 nm emission using Deltasoft software.\nDrug efficacy was determined in a three-plasmid transcriptional switch reporter assay. ˜106 COS1 cells were coelectroporated with 2 μg of the DNA binding construct pBJ5-Gal4-FKBP(3), 2 μg pBJ5-VP16 (or the relevant mutant FRB) and 2 μg of the Gal4-SeAP reporter. Electroporation details are available upon request. […] SeAP activity was measured by fluorescence with a Spectamax M2 fluorometer (Molecular Devices, Sunnyvale, Calif.) with transmission set at 355 nm and emmission set at 460 nm. Data was analysed with Softmax Pro (Molecular Devices), Microsoft Excel and Prism 3 (GraphPad Software)."}, "[3]": {"target": "T3, FKBP-GSK3β-GFP (Homo sapiens, UniProt P62942)", "T3 construct": "expressed in transfected cells; host or cells: COS1 cells", "experiment": "Sub-cellular localization of FKBP-GSK3β-GFP with FRB(TLW)-NES and FRB(KTF)-NLS in COS1 cells", "assay_type": "cell-based", "settings": "10 nM, 1 hour", "description": "COS1 cells were electroporated with 1 μg pS-FKBP-GSK3β-GFP, 1 μg of the ‘exporter’ pBJ5-FRB(TLW)-Exp-HA containing a nuclear export sequence derived from the rev protein of Human Immunodeficiency Virus and 3 μg of the ‘importer’ pBJ5-FRB(KTF)-Imp with a nuclear localization sequence from SV40 Large T antigen. Cells were plated on autoclaved coverslips and incubated 36 hours followed by 1 hour of rapalog treatment (10 nM). Cells were fixed 10 minutes in 4% paraformaldeyde/PBS at 4° C. and mounted for microscopy with DAPI to visualize the nucleus. Microscopy was perfomed with a Leica confocal microscope and Leica software."}, "[4]": {"target": "T4, KLF (Homo sapiens, UniProt P42345+P62942, T2098L/W2101F)", "T4 construct": "The minimal FRB domain comprises amino acids 2025-2114 of human mTor; expressed in transfected cells; host or cells: COS1 cells", "T4 sequence (P42345 2025-2114 T2098L/W2101F)": "as the sequence (P42345 2025-2114 W2101F) above, with T74L counted along it", "T4 sequence (P62942 whole entry, the tested form may be a part)": "as the sequence (P62942 whole entry, the tested form may be a part) above", "experiment": "SeAP transcriptional switch assay, FRB mutant KLF", "assay_type": "cell-based", "settings": "double mutant", "description": "as §1"}, "[5]": {"target": "T5, KLW (Homo sapiens, UniProt P42345+P62942, T2098L)", "T5 construct": "The minimal FRB domain comprises amino acids 2025-2114 of human mTor; expressed in transfected cells; host or cells: COS1 cells", "T5 sequence (P42345 2025-2114 T2098L)": "as the sequence (P42345 2025-2114 W2101F) above, with T74L, F77W counted along it", "T5 sequence (P62942 whole entry, the tested form may be a part)": "as the sequence (P62942 whole entry, the tested form may be a part) above", "experiment": "SeAP transcriptional switch assay, FRB mutant KLW", "assay_type": "cell-based", "description": "as §1"}, "[6]": {"target": "T6, FRB*Pax6 (UniProt P26883+P42345, K2095P/T2098L/W2101F)", "T6 construct": "The minimal FRB domain comprises amino acids 2025-2114 of human mTor; from tissue; host or cells: e13.5 cortical neural cultures (A14) and cultured whole embryos (A15) from Pax6^FRB* knock-in mice; fusion expressed from the targeted endogenous locus", "T6 sequence (P42345 2025-2114 K2095P/T2098L/W2101F)": "as the sequence (P42345 2025-2114 W2101F) above, with K71P, T74L counted along it", "T6 sequence (P26883 2-108)": "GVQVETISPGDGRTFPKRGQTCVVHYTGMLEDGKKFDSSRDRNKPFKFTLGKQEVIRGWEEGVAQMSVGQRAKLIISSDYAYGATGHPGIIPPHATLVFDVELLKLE", "experiment": "Whole embryo culture, inducible stabilization of FRB*Pax6", "parameters": "species or system mouse", "description": "Uterine horns were removed from sacrificed mothers to a petri dish containing Hank's Balanced Salt Solution (HBSS), fat was removed and the uterus cut up to isolate embryos. Individual deciduum were carefully removed from the uterus by carefully pulling apart the muscular layers in a fresh petri dish containing HBSS (sometimes supplemented with 2 mg/mL glucose) under a dissecting microscope. Embryos were removed by cutting along the lateral axis of the deciduum with fine forceps taking care not to puncture the embryonic membranes and teasing off the decidual layers overlying the embryo. Embryos were then separated from the remaining decidua at the ectoplacental cone or primitive placenta (depending on the age of the embryo).\nReichert's membrane was grasped without the underlying visceral yolk sac, carefully torn away from the embryo and trimmed back to the placenta without ripping the yolk sac. […] The bottle rotated slowly in a roller bottle chamber at 37° C. Drugs were added directly to the culture media at the commencement of the culture.\nEmbryos were fixed overnight in 4% paraformaldehyde/PBS then dehydrated through a staged ethanol series. Endogenous peroxidases were inactivated with 5% H2O2 for 4 hours in ethanol and the embryos were rehydrated. […] Embryos were washed in block 6 hours with 1 hour changes and incubated overnight at 4° C. with […] anti-mouse secondary. Embryos were washed with PBS+0.1% Triton X-100 4 times for 1 hour and developed with the DAB peroxidase kit from Vector laboratories.\nEmbryos were protected with a staged series to 30% sucrose in PBS after fixation in 4% PFA (60 minutes to overnight at 4° C.). Protected embryos were embedded in OCT (VWR) frozen and sectioned on a Leica cryostat to 10 μm. Thin sections were stained according to standard protocols (obtained upon request). Secondary antibodies were purchased from Molecular Probes (Eugene, Oreg.) and primary antibodies to neurofilament, Lim3, Nkx2.2, Pax6, En1, Isl1 were obtained from Dev. Studies. Additional antibodies were from Covance, Zymed or a generous gift of Tadashi Nomura and Noriko Osumi (Sendai, Japan). Immunofluorescence was visualized by confocal microscopy."}}}
{"substance": "C20-(R or S)-methallylrapamycin [C20-MaRap]", "values": [{"measurement": "binding to KTF", "setting": "[1]", "value": "binds efficiently"}, {"measurement": "EC50", "setting": "[1]; single mutation Trp2101 to Phe", "value": 9, "unit": "nM"}, {"measurement": "Kd", "setting": "[2]; FRB*", "value": 3.1, "unit": "nM"}, {"measurement": "EC50", "setting": "[2]; FRB*(PLF)-VP16, ±95% confidence intervals", "value": "3.1 ± 0.36", "unit": "nM"}, {"measurement": "sub-cellular localization of GSK3β", "setting": "[3]", "value": "localization of GSK3β to the nucleus"}, {"measurement": "EC50", "setting": "[4]", "value": 7.8, "unit": "nM"}, {"measurement": "improvement of affinity of KLW over wild-type", "setting": "[5]; KLW versus wild-type FRB", "value": "about 5 fold"}, {"measurement": "EC50", "setting": "[5]; single mutation Thr2098 to Leu, read-out: affinity, KLW", "value": 22, "unit": "nM"}, {"measurement": "Lim3 phenotype of caudal hindbrain", "setting": "[6]; 48 hours from e9.5 to e11.5", "value": "could be rescued"}, {"measurement": "hypoglossal nerve, whole mount neurofilament staining", "setting": "[6]; 48 hours from e9.5 to e11.5", "value": "fasciculated hypoglossal nerve erupts"}, {"measurement": "expression of FRB*Pax6 protein in the spinal cord", "setting": "[6]; Pax6FRB*/FRB* embryos, data not shown", "value": "rescued"}, {"measurement": "En1 expressing cells in the V1 domain of spinal cord", "setting": "[6]; e8.5 embryos cultured 48 hours, 2 μM", "value": "rescued the development of En1 expressing cells"}, {"measurement": "cells expressing Lim3 in spinal cord", "setting": "[6]; e9.5 to e11.5, 2 μM", "value": "expansion of cells expressing Lim3"}, {"measurement": "effect on wild-type embryos", "setting": "[6]; embryo cultures", "value": "no obvious effect"}]}
